# In patent US6646181B1, “Solid matrix control of seed conditioning using selected cell cycle stages” (Kamterter II, L.L.C., priority 1987, dated 2003):
# System: lettuce (Lactuca sativa) 'Montello'
# Assay: Alleviation of thermodormancy: lettuce germination at 35 C
# Assay type: in vivo
# Details: 35 C in the dark, after 10 days, priming 20-24 hours
# Experimental: Alleviation of thermodormancy by priming was studied in lettuce (Lactuca sativa) ‘Montello’. SMP of lettuce was performed with Agro-Lig (Table 1). Conventional priming treatments included: −1.5 MPa PEG 8000 (Bradford, 1986, supra) and 1.0% K3PO4 (Cantliffe, et al., 1984, Plant Physiol. 75:290-294). After priming, seeds were rinsed and allowed to dry. Seeds were placed to germinate on moistened blotters in closed containers. The containers were maintained at a constant 35 C in the dark. There were four replications of 50 seeds each and the percent germination was determined after 10 days.
smiles,measurement,value
"O=P([O-])([O-])[O-].[K+].[K+].[K+] [1.0% K3PO4, K3PO4]",Percent germination,71 a %
